According to patent US20240217967A1, “INDOLINE DERIVATIVES AS DDRS INHIBITORS” (CHIESI FARMACEUTICI S.P.A., priority 2021, published 2024):

Key:
DDR1 [1] = target: T1, DDR1 (Homo sapiens, UniProt Q08345); assay: DDR1 LanthaScreen Europium Kinase Binding assay; settings: binding affinity; IC50 converted in Ki using Cheng-Prusoff; read-out: Ki DDR1
Procedure: (§1) DDR1 and DDR2 binding assays were performed using Life Technologies LanthaScreen™ Europium Kinase Binding assay. The compounds were incubated with 5 nM DDR1 (Carna Biosciences) or 5 nM DDR2 (Life Technologies) for 1 hour at room temperature in white 384-well OptiPlate (PerkinElmer), containing 20 nM or 10 nM Kinase Tracer 178 respectively and 2 nM Europium labelled anti-GST antibody (Life Technologies) in assay buffer (50 mM HEPES pH 7.5, 10 mM MgCI2, 1 mM EGTA and 0.01% BRIJ35). The ratio of fluorescence emission 665 nm/615 nm after excitation at 340 nm was obtained using the Tecan Spark 20M plate reader. IC50 values were determined in GraphPad Prism 7.0 software, using 4 parameter model: log(inhibitor) vs. response. IC50 values were converted in Ki using the Cheng-Prusoff equation (Ki=IC50/(1+[Tracer]/Kd).

DDR2 = target: T2, DDR2 (Homo sapiens, UniProt Q16832); assay: DDR2 LanthaScreen Europium Kinase Binding assay; settings: binding affinity; IC50 converted in Ki using Cheng-Prusoff; read-out: Ki DDR2
T2 sequence (Q16832 22-855): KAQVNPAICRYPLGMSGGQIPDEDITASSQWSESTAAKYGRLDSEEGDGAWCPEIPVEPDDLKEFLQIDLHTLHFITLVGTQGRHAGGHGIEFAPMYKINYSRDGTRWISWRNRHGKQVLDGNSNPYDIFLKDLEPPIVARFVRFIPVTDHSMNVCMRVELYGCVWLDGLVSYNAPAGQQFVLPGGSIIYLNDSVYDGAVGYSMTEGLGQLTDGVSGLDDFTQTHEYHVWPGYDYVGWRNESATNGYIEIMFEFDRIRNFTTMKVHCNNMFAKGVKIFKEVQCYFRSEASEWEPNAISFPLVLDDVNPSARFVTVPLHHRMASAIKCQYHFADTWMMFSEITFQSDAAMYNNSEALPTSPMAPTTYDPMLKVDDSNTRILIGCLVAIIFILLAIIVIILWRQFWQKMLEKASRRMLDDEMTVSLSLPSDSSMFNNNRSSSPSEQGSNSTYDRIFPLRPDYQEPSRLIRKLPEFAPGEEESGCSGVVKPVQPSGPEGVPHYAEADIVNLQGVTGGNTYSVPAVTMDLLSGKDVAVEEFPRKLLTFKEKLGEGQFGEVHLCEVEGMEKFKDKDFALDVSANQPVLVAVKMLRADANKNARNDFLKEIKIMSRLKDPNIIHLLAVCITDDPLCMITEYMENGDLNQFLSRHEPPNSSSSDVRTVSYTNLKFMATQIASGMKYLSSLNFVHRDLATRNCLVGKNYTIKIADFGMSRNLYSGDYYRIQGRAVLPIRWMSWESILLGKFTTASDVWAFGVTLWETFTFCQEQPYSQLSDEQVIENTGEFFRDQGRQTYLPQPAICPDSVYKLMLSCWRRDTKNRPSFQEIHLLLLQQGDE
Procedure: as §1

DDR1 [2] = target: T1, DDR1; assay: DDR1 cell based assay (PathHunter U2OS DDR1, collagen II stimulation); settings: U2OS-DDR1 cells, bovine Type II Collagen stimulation
Procedure: The inhibition of DDR1 receptor activation by compounds was evaluated by PathHunter® U2OS DDR1 assay (Eurofins DiscoverX), according to the manufacturer's instructions. Briefly, U2OS-DDR1 cells were seeded in white 384-well plates at a density of 5000 cells/well and incubated for 2 hours at 37° C. and 5% CO2. Cells were then treated with compounds at different concentrations and incubated for 30 minutes, before stimulation with bovine Type II Collagen 20 μg/ml and incubation overnight at 37° C. and 5% CO2. PathHunter Detection Reagents were prepared according to the protocol provided by DiscoverX and 20 μl/well of this mix were added to each well. After incubating the plates for 1 hour at room temperature in the dark, luminescence signal was acquired with a plate reader. Raw data were normalized to vehicle control (0% for normalization) and positive control (100% for normalization; cells treated with 20 μg/ml collagen II) and IC50 parameters were calculated in GraphPad Prism 8.0 software, using sigmoidal dose-response curve fitting with variable slope.

T1 sequence (Q08345 19-913): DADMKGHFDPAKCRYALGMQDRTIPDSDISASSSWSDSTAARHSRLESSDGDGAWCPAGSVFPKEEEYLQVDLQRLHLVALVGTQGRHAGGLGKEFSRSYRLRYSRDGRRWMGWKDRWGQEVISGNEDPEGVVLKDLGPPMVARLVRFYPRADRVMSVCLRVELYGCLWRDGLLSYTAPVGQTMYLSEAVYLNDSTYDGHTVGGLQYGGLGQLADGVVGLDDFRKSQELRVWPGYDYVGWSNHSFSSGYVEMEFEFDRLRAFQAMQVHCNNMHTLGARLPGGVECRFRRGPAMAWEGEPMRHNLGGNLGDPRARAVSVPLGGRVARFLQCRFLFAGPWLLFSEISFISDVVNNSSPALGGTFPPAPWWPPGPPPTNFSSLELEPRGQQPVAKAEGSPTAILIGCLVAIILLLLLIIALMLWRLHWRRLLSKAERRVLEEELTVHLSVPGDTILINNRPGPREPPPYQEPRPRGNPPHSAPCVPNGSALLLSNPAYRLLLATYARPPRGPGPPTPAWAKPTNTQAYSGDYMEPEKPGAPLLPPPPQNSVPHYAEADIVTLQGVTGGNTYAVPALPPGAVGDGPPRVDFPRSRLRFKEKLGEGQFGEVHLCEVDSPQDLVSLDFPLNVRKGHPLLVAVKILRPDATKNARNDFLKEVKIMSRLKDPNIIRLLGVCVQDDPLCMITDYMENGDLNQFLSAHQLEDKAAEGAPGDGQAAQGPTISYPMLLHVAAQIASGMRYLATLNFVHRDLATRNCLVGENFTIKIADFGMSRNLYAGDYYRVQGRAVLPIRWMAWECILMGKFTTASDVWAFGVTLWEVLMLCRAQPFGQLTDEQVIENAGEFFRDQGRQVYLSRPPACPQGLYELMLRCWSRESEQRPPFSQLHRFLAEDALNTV

SMILES | Ki (DDR1 [1]) | Ki (DDR2) | IC50 (DDR1 [2])
CC1CN(Cc2cnc3cnccn23)c2cc(C(=O)Nc3cncc(C(F)(F)F)c3)ccc21 (stereo not drawn) [Example 92, 1-(imidazo[1,2-a]pyrazin-3-ylmethyl)-3-methyl-N-(5-(trifluoromethyl)pyridin-3-yl)indoline-6-carboxamide] | < 25 nM | < 25 nM | 25 to 50 nM
O=C(Nc1cc(F)cc(OC(F)(F)F)c1)c1ccc2c(c1)N(Cc1cnc3ccccn13)CC2 [Example 56, N-(3-fluoro-5-(trifluoromethoxy)phenyl)-1-(imidazo[1,2-a]pyridin-3-ylmethyl)indoline-6-carboxamide] | < 25 nM | < 25 nM | 25 to 50 nM
O=C(Nc1cc(CN2CCCC2)cc(C(F)(F)F)c1)c1ccc2c(c1)N(Cc1cnc3cnccn13)CC2 [Example 50, 1-(imidazo[1,2-a]pyrazin-3-ylmethyl)-N-(3-(pyrrolidin-1-ylmethyl)-5-(trifluoromethyl)phenyl)indoline-6-carboxamide] | < 25 nM | < 25 nM | 25 to 50 nM
Cc1cn(-c2cc(NC(=O)c3ccc4c(c3)N(Cc3ccc5ccncc5c3)CC4)cc(C(F)(F)F)c2)cn1 [Example 5, 1-(isoquinolin-7-ylmethyl)-N-(3-(4-methyl-1H-imidazol-1-yl)-5-(trifluoromethyl)phenyl)indoline-6-carboxamide] | 25 to 50 nM | 50 to 80 nM | 25 to 50 nM
CC1CN(Cc2cnc3ccccn23)c2cc(C(=O)Nc3cccc(C(F)(F)F)c3)ccc21 (stereo not drawn) [Example 33, 1-(imidazo[1,2-a]pyridin-3-ylmethyl)-3-methyl-N-(3-(trifluoromethyl)phenyl)indoline-6-carboxamide] | < 25 nM | 25 to 50 nM | 50 to 80 nM
CN1CCN(Cc2cc(NC(=O)c3ccc4c(c3)N(C(=O)c3cnc5cnccn35)CC4)cc(C(F)(F)F)c2)CC1 [Example 15, 1-(imidazo[1,2-a]pyrazine-3-carbonyl)-N-(3-((4-methylpiperazin-1-yl)methyl)-5-(trifluoromethyl)phenyl)indoline-6-carboxamide] | < 25 nM | < 25 nM | 50 to 80 nM
O=C(Nc1cccc(C(F)(F)F)c1)c1ccc2c(c1)N(Cc1cnc3ccccn13)CC2 [Example 57, 1-(imidazo[1,2-a]pyridin-3-ylmethyl)-N-(3-(trifluoromethyl)phenyl)indoline-6-carboxamide] | 25 to 50 nM | 50 to 80 nM | 25 to 50 nM
CN1CCN(Cc2ccc(NC(=O)c3ccc4c(c3)N(Cc3cnc5c(c3)CCN5)CC4)cc2C(F)(F)F)CC1 [Example 77, 1-((2,3-dihydro-1H-pyrrolo[2,3-b]pyridin-5-yl)methyl)-N-(4-((4-methylpiperazin-1-yl)methyl)-3-(trifluoromethyl)phenyl)indoline-6-carboxamide] | < 25 nM | 25 to 50 nM | < 25 nM
Cc1cn(-c2cc(C(=O)Nc3ccc4c(c3)N(Cc3cnc5ccccn35)CC4)cc(C(F)(F)F)c2)cn1 [Example 23, N-(1-(imidazo[1,2-a]pyridin-3-ylmethyl)indolin-6-yl)-3-(4-methyl-1H-imidazol-1-yl)-5-(trifluoromethyl)benzamide] | < 25 nM | < 25 nM | 50 to 80 nM
Cc1cn(-c2cc(C(=O)Nc3ccc4c(c3)N(C(=O)c3cnc5cnccn35)CC4)cc(C(F)(F)F)c2)cn1 [Example 20, N-(1-(imidazo[1,2-a]pyrazine-3-carbonyl)indolin-6-yl)-3-(4-methyl-1H-imidazol-1-yl)-5-(trifluoromethyl)benzamide] | < 25 nM | < 25 nM | 25 to 50 nM
Cc1n[nH]c2ncc(CN3CCc4ccc(C(=O)Nc5cncc(C(F)(F)F)c5)cc43)cc12 [Example 71, 1-((3-methyl-1H-pyrazolo[3,4-b]pyridin-5-yl)methyl)-N-(5-(trifluoromethyl)pyridin-3-yl)indoline-6-carboxamide] | < 25 nM | < 25 nM | < 25 nM
Cc1cn(-c2cc(NC(=O)c3ccc4c(c3)N(Cc3ccc5[nH]cnc5c3)CC4)cc(C(F)(F)F)c2)cn1 [Example 4, 1-((1H-benzo[d]imidazol-5-yl)methyl)-N-(3-(4-methyl-1H-imidazol-1-yl)-5-(trifluoromethyl)phenyl)indoline-6-carboxamide] | < 25 nM | < 25 nM | 25 to 50 nM
Cc1n[nH]c2ncc(CN3CCc4ccc(C(=O)Nc5cc(CN6CCCC6)cc(C(F)(F)F)c5)cc43)cc12 [Example 66, 1-((3-methyl-1H-pyrazolo[3,4-b]pyridin-5-yl)methyl)-N-(3-(pyrrolidin-1-ylmethyl)-5-(trifluoromethyl)phenyl)indoline-6-carboxamide] | < 25 nM | < 25 nM | < 25 nM
Cc1cn(-c2cc(NC(=O)c3ccc4c(c3)N(Cc3cnc5cnccn35)CC4C)cc(C(F)(F)F)c2)cn1 (racemic) [Example 26, 1-(imidazo[1,2-a]pyrazin-3-ylmethyl)-3-methyl-N-(3-(4-methyl-1H-imidazol-1-yl)-5-(trifluoromethyl)phenyl)indoline-6-carboxamide] | < 25 nM | < 25 nM | 25 to 50 nM
Cn1nc(NC(=O)c2ccc3c(c2)N(Cc2cnc4cnccn24)CC3)cc1C(C)(C)C [Example 87, N-(5-(tert-butyl)-1-methyl-1H-pyrazol-3-yl)-1-(imidazo[1,2-a]pyrazin-3-ylmethyl)indoline-6-carboxamide] | < 25 nM | < 25 nM | 25 to 50 nM
Cc1n[nH]c2ncc(CN3CCc4ccc(C(=O)Nc5cc(C(C)(C)C)on5)cc43)cc12 [Example 67, N-(5-(tert-butyl)isoxazol-3-yl)-1-((3-methyl-1H-pyrazolo[3,4-b]pyridin-5-yl)methyl)indoline-6-carboxamide] | < 25 nM | < 25 nM | < 25 nM
O=C(Nc1cccc(OC(F)(F)F)c1)c1ccc2c(c1)N(Cc1cnc3cnccn13)CC2 [Example 43, 1-(imidazo[1,2-a]pyrazin-3-ylmethyl)-N-(3-(trifluoromethoxy)phenyl)indoline-6-carboxamide] | < 25 nM | < 25 nM | 25 to 50 nM
O=C(Nc1cc(F)cc(OC(F)(F)F)c1)c1ccc2c(c1)N(Cc1cnc3cnccn13)CC2 [Example 44, N-(3-fluoro-5-(trifluoromethoxy)phenyl)-1-(imidazo[1,2-a]pyrazin-3-ylmethyl)indoline-6-carboxamide] | < 25 nM | < 25 nM | < 25 nM
O=C(Nc1cccc(OC(F)(F)F)c1)c1ccc2c(c1)N(Cc1cnc3ccccn13)CC2 [Example 55, 1-(imidazo[1,2-a]pyridin-3-ylmethyl)-N-(3-(trifluoromethoxy)phenyl)indoline-6-carboxamide] | < 25 nM | 25 to 50 nM | < 25 nM
CCC1CN(Cc2cnc3cnccn23)c2cc(C(=O)Nc3cc(-n4cnc(C)c4)cc(C(F)(F)F)c3)ccc21 (single isomer, unassigned) [Example 64, 3-ethyl-1-(imidazo[1,2-a]pyrazin-3-ylmethyl)-N-(3-(4-methyl-1H-imidazol-1-yl)-5-(trifluoromethyl)phenyl)indoline-6-carboxamide] | < 25 nM | < 25 nM | 25 to 50 nM
